Test results from patent US20090263744A1, “ETHYLENICALLY UNSATURATED COMPOUND, LIGHT SENSITIVE COMPOSITION, LIGHT SENSITIVE PLANOGRAPHIC PRINTING PLATE MATERIAL AND PRINTING PROCESS EMPLOYING THE SAME” (priority 2005, published 2009).

Legend:
[1] = Solubility of polymerizable monomer in 25° C. pure water (visual, no precipitations or oily separated components); assay type: physicochemical
Procedure: (§1) Herein, “dissolve” implies that no precipitations or oily separated components are visually observed under the following experimental conditions. Solubility in a 25° C. KOH aqueous solution having a pH of 12.5 or 25° C. pure water is represented by a value obtained by the following measuring method.
(§2) An ethylenically unsaturated compound is added to 20 ml of the solution or pure water described above at 25° C. in a 100 ml conical flask, stirred with a stirrer having a 1 cm long stirrer piece at a rate of 300 rpm for one hour, then allowed to stand for five minutes.
(§3) Solubility of polymerizable monomer to water or an alkali solution was measured according to the procedure described above.

[2] = Solubility of polymerizable monomer in alkali solution (25° C. KOH aqueous solution having a pH of 12.5); assay type: physicochemical; conditions: Table 3, pH 12.5
Procedure: as §1, §2, §3

C=CC(=O)OCC(CO)(COC(=O)C=C)COC(=O)C=C [PETA, Pentaerythritol triacrylate]
Solubility of polymerizable monomer weight % (water) ([1]; Table 2, water, 25° C.): 0.1 weight % | Solubility of polymerizable monomer, Pure water ([1]; Table 3, 25° C. pure water): 0.1 % by weight | Solubility of polymerizable monomer, Alkali solution [2]: 0.1 % by weight
